Our source for the melting point values is US8691837B2, “Substituted imidazo ring systems and methods” (3M Innovative Properties Company, priority 2003, dated 2014).

Each structure is given as a SMILES string. Counter-ions that a name gives are not always drawn.

As a reminder, the melting point is the temperature, or range, at which the solid turns liquid. For `CCCc1nc2c(N)nc3ccccc3c2n1CCCCCCCCCCCC(=O)c1ccccc1` (as salt: hydrochloride) [Example 16, 12-(4-Amino-2-propyl-1H-imidazo[4,5-c]quinolin-1-yl)-1-phenyldodecan-1-one hydrochloride], the melting point lay in the range of 195 to 196 °C.
The value for `CCCc1nc2c(N)nc3ccccc3c2n1CCCCCCCCCCCC(=O)N(C)OC` (as salt: hydrochloride) [Example 21, 12-(4-Amino-2-propyl-1H-imidazo[4,5-c]quinolin-1-yl)-N-methoxy-N-methyldodecanamide hydrochloride] was 156 to 158 °C; that for `CCCCc1nc2c(N)nc3ccccc3c2n1CCCC(C)=O` [Example 2, 5-(4-Amino-2-butyl-1H-imidazo[4,5-c]quinolin-1-yl)pentan-2-one] was 173 to 176 °C.
Next, `CCCCc1nc2c(N)nc3ccccc3c2n1CCCCCC(=O)c1ccccc1` [Example 4, 6-(4-Amino-2-butyl-1H-imidazo[4,5-c]quinolin-1-yl)-1-phenylhexan-1-one]: 149 to 151 °C.
The value for `Nc1nc2ccccc2c2c1ncn2CCCCCC(=O)c1ccccc1` [Example 5, 6-(4-Amino-1H-imidazo[4,5-c]quinolin-1-yl)-1-phenylhexan-1-one] was 163 to 165 °C.
`Cc1nc2c(N)nc3ccccc3c2n1CCCC1(C)OCCO1` [Example 6, 2-Methyl-1-[3-(2-methyl-[1,3]dioxolan-2-yl)propyl]-1H-imidazo[4,5-c]quinolin-4-amine] showed a melting point of 193 to 195 °C.
Next, `CCc1nc2c(N)nc3ccccc3c2n1CCCC1(C)OCCO1` [Example 7, 2-Ethyl-1-[3-(2-methyl-[1,3]dioxolan-2-yl)propyl]-1H-imidazo[4,5-c]quinolin-4-amine]: 195 to 196.5 °C; `CCCc1nc2c(N)nc3ccccc3c2n1CCCC1(C)OCCO1` [Example 8, 1-[3-(2-Methyl-[1,3]dioxolan-2-yl)propyl]-2-propyl-1H-imidazo[4,5-c]quinolin-4-amine]: 184 to 186 °C; `CCCCc1nc2c(N)nc3ccccc3c2n1CCCC1(C)OCCO1` [Example 9, 2-Butyl-1-[3-(2-methyl-[1,3]dioxolan-2-yl)propyl]-1H-imidazo[4,5-c]quinolin-4-amine]: 169 to 171.5 °C.
`CCOCc1nc2c(N)nc3ccccc3c2n1CCCC1(C)OCCO1` [Example 10, 2-Ethoxymethyl-1-[3-(2-methyl-[1,3]dioxolan-2-yl)propyl]-1H-imidazo[4,5-c]quinolin-4-amine]: the melting point lay within 150 to 152 °C.
Next, `CC(=O)CCCn1c(C)nc2c(N)nc3ccccc3c21` [Example 11, 5-(4-Amino-2-methyl-1H-imidazo[4,5-c]quinolin-1-yl)pentan-2-one]: 194 to 196 °C.
Next, `CCc1nc2c(N)nc3ccccc3c2n1CCCC(C)=O` [Example 12, 5-(4-Amino-2-ethyl-1H-imidazo[4,5-c]quinolin-1-yl)pentan-2-one]: 206 to 208 °C; `CCCc1nc2c(N)nc3ccccc3c2n1CCCC(C)=O` [Example 13, 5-(4-Amino-2-propyl-1H-imidazo[4,5-c]quinolin-1-yl)pentan-2-one]: 176 to 177 °C.
Next, `CCOCc1nc2c(N)nc3ccccc3c2n1CCCC(C)=O` [Example 14, 5-(4-Amino-2-ethoxymethyl-1H-imidazo[4,5-c]quinolin-1-yl)pentan-2-one]: 173 to 175 °C; `CCCc1nc2c(N)nc3ccccc3c2n1CCCCCC(C)=O` [Example 15, 7-(4-Amino-2-propyl-1H-imidazo[4,5-c]quinolin-1-yl)heptan-2-one]: 161 to 163 °C; `CCCc1nc2c(N)nc3ccccc3c2n1CCCC(=O)CC(C)C` [Example 17, 1-(4-Amino-2-propyl-1H-imidazo[4,5-c]quinolin-1-yl)-6-methylheptan-4-one]: 136 to 138 °C.
With `CCCCCCC(=O)CCCn1c(CCC)nc2c(N)nc3ccccc3c21` [Example 18, 1-(4-Amino-2-propyl-1H-imidazo[4,5-c]quinolin-1-yl)decan-4-one], the melting point lay in the range of 111 to 113 °C.
In the case of `CCCc1nc2c(N)nc3ccccc3c2n1CCCCCC(=O)N(C)OC` [Example 19, 6-(4-Amino-2-propyl-1H-imidazo[4,5-c]quinolin-1-yl)-N-methoxy-N-methylhexanamide], the melting point is 134 to 135 °C.
Next, `CCCc1nc2c(N)nc3ccccc3c2n1CCCC(=O)N(C)OC` [Example 20, 4-(4-Amino-2-propyl-1H-imidazo[4,5-c]quinolin-1-yl)-N-methoxy-N-methylbutyramide]: 163 to 165 °C; `Cc1nc2c(N)nc3ccccc3c2n1CC(C)(C)CC1(C)OCCO1` [Example 22, 1-[2,2-Dimethyl-3-(2-methyl-[1,3]dioxolan-2-yl)propyl]-2-methyl-1H-imidazo[4,5-c]quinolin-4-amine]: 209 to 211 °C.
The value for `CCCc1nc2c(N)nc3ccccc3c2n1CC(C)(C)CC1(C)OCCO1` [Example 23, 1-[2,2-Dimethyl-3-(2-methyl-[1,3]dioxolan-2-yl)propyl]-2-propyl-1H-imidazo[4,5-c]quinolin-4-amine] was 186 to 188 °C.
The value for `CC(=O)CC(C)(C)Cn1c(C)nc2c(N)nc3ccccc3c21` [Example 24, 5-(4-Amino-2-methyl-1H-imidazo[4,5-c]quinolin-1-yl)-4,4-dimethylpentan-2-one] was 223 to 225 °C; that for `CCCc1nc2c(N)nc3ccccc3c2n1CC(C)(C)CC(C)=O` [Example 25, 5-(4-Amino-2-propyl-1H-imidazo[4,5-c]quinolin-1-yl)-4,4-dimethylpentan-2-one] was 178 to 180 °C.
With `CCCc1nc2c(N)nc3ccccc3c2n1CCC(=O)OCC` [Example 26, Ethyl 3-(4-amino-2-propyl-1H-imidazo[4,5-c]quinolin-1-yl)propionate], the melting point fell in the range of 156 to 157 °C.
The value for `CCCc1nc2c(N)nc3ccccc3c2n1CCCC(=O)OCC` [Example 27, Ethyl 4-(4-amino-2-propyl-1H-imidazo[4,5-c]quinolin-1-yl)butyrate] was 154 to 156 °C.
Next, `CCCc1nc2c(N)nc3ccccc3c2n1CCCCCC(=O)OCC` [Example 28, Ethyl 6-(4-amino-2-propyl-1H-imidazo[4,5-c]quinolin-1-yl)hexanoate]: 112 to 113 °C; `CCCc1nc2c(N)nc3ccccc3c2n1CC(OCC)OCC` [Example 29, 1-(2,2-Diethoxyethyl)-2-propyl-1H-imidazo[4,5-c]quinolin-4-amine]: 148 to 150 °C; `CCCc1nc2c(N)nc3ccccc3c2n1CCC(OCC)OCC` [Example 30, 1-(3,3-Diethoxypropyl)-2-propyl-1H-imidazo[4,5-c]quinolin-4-amine]: 148 to 150 °C.
Next, `CC(C)(Cn1cnc2c(N)nc3ccccc3c21)CC1(C)OCCO1` [Example 31, 1-[2,2-Dimethyl-3-(2-methyl[1,3]dioxolan-2-yl)propyl]-1H-imidazo[4,5-c]quinolin-4-amine]: 153 to 155 °C.
In turn, `CC(=O)CC(C)(C)Cn1cnc2c(N)nc3ccccc3c21` [Example 32, 5-(4-Amino-1H-imidazo[4,5-c]quinolin-1-yl)-4,4-dimethylpentan-2-one] returned a melting point of 214 to 216 °C.
Next, `CCCc1nc2c(N)nc(C)c(C)c2n1CCCC(C)=O` [Example 33, 5-(4-Amino-6,7-dimethyl-2-propyl-1H-imidazo[4,5-c]pyridin-1-yl)pentan-2-one]: 148.5 to 149.5 °C; `CCOCc1nc2c(N)nc3ccccc3c2n1CCCC(=O)OCC` [Example 34, Ethyl 4-[4-amino-2-(ethoxymethyl)-1H-imidazo[4,5-c]quinolin-1-yl]butanoate]: 129 to 131 °C; `CCOCc1nc2c(N)nc3ccccc3c2n1CCCC(=O)N(C)OC` [Example 35, 4-[4-Amino-2-(ethoxymethyl)-1H-imidazo[4,5-c]quinolin-1-yl]-N-methoxy-N-methylbutanamide]: 163 to 165 °C.
Consider `CCCc1nc2c(N)nc3ccccc3c2n1CCCCC(=O)N(C)OC` [Example 36, 5-(4-Amino-2-propyl-1H-imidazo[4,5-c]quinolin-1-yl)-N-methoxy-N-methylpentanamide], for which the melting point was 150 to 151 °C.
The value for `CCOCc1nc2c(N)nc3ccccc3c2n1CC(=O)CC` [Example 37, 1-[4-Amino-2-(ethoxymethyl)-1H-imidazo[4,5-c]quinolin-1-yl]butan-2-one] was 187 to 188 °C.
